Measurements taken from patent EP1263420B1 (priority 2000, dated 2001).
Entries after “also recorded” stand apart in the source; their conditions may differ.

Legend:
TGase II [1] = assay: TGase II assay of SENCAR mouse liver tissue after dietary RA; assay type: in vivo; settings: 75 Weeks
Method: The supernatant was removed and kept in ice until used.
Reactions were slowed down in an ice bath. […] Protein concentration determination was conducted by the Bradford method.

TGase II [2] = assay: TGase II activity in cultured MCF-7 cells; assay type: cell-based, human
Method: MCF-7 cells were seeded at a density of 1.5 x 10^5 cells/ml medium (500ml DMEM + 56.2ml FBS + 5.6m1 AB/AM) in 6cm diameter dishes for 24 hours and treated with either DMSO, RA, or 13-cis RA at 10^-6 M and grown to confluence (about 72 hours). Cells were harvested and Transglutaminase II activity was measured as described below. Nebulizer solution, inhalation procedures, details of animal housing are described below.
Cultured cells were placed in 100 µl scraping buffer [A: 2800µl (400µl 0.5M Na-Phosphate, 500µl 0.01M EDTA, 100µl 1M DTT , 9ml PBS total 10ml) + B:700µl (10µl 20mg/ml PMSF 790µl PBS total 800µl)] for each dish. Cells were broken by a sonicator and kept in ice until used. TGase II assay was conducted as described below and previously {8217}.
Enzyme assay mixtures were prepared by adding 80µl of SUBSTRATE mixture (322.8µl H2O, 120µl 0.5M NaBorate, 60µl 0.01M EDTA, 60µl 0.1M CaCl2, 6µl 1M DTT, 240µl dimethyl casein, 30µl Triton X-100, 1.2µl [^3H]-Putrescine, 120µl Putrescine) to 20µl sample, 20µl scraping buffer for blank control , 20 µl (18µl scraping buffer + 2µl TGase II) for positive control. Samples were mixed in 15ml tubes, the tubes were shaken before putting them into a 28°C water bath for 30 minutes. Reactions were slowed down in an ice bath. 80µl of the incubation mixture was adsorbed onto paper disks. These were immediately dropped into cold 10% TCA (0.1% Putrescine) and washed with agitation for 7 minutes, followed by 2 additional washes with 5% TCA (0.05% putrescine) for 5~7 minutes, and once more with cold (-20°C) 95% ethanol for 5 minutes. Paper disks were dried and placed into 5ml Aquasol, and counted in a Liquid Scintillation Counter. Protein concentration determination was conducted by the Bradford method.

lung tissue RARs = assay: Western blot of SENCAR mouse lung tissue after dietary RA; assay type: in vivo
Method: (§1) The experimental groups were divided in two groups of five mice (Table 5) each including a low and high dose group that were fed either a physiological RA diet of 3µg/g diet) or a pharmacological RA diet (30µg/g diet) for 75 weeks, respectively.
(§2) SENCAR mice (30) were divided into six experimental groups. The experimental groups were as follows (Table 7): groups 1, 3 and 5 (5 mice each) were fed a physiological RA diet (3µg/g diet) for 1, 14 and 28 days; groups 2, 4 and 6 (each of 5 mice) were fed a pharmacological RA diet (30µg/g diet) for 1, 14 and 28 days.
(§3) Polyclonal rabbit anti-mouse antibodies against RAR, and (SANTA CRUZ Biotechnology Inc., San Francisco, CA) were used. BM Chemiluminescense Western Blotting Kit (Mouse/Rabbit) was used (Boehringer Mannheim Corporation, Indianapolis) for the Westerns.
Tissues were collected, frozen in dry ice and kept at -70°C until used. 500mg aliquots were diced in small pieces and homogenized in 300µl of cold PBS, using the hand held homogenizer for 2~3 minutes. Sample and washes were centrifuged at 5000xg for 20 minutes. The pellet was suspended in 400 µl of ice-cold Buffer A [2µl 0.5M EDTA, 10µl 100mM EGTA, 50µl 100mM PMSF, 10µl 1M DTT, 10ml (10mM HEPES pH 7.9 + 10mM KCl)], and left at ice temperature for 15 minutes. 25 µl of 10% solution of NP-40 was added and samples were mixed in a vortex vigorously for 10 seconds. […]

RARβ = assay: Western blot of SENCAR mouse liver after dietary RA; assay type: in vivo; settings: for RARβ densitometric analysis: male SENCAR mouse liver
Method: as §1, §2, §3
(§4) Tissues were collected, frozen in dry ice and kept at -70°C until used. 500mg aliquots were diced in small pieces and homogenized in 300µl of cold PBS, using the hand held homogenizer for 2~3 minutes. Sample and washes were centrifuged at 5000xg for 20 minutes. The pellet was suspended in 400 µl of ice-cold Buffer A [2µl 0.5M EDTA, 10µl 100mM EGTA, 50µl 100mM PMSF, 10µl 1M DTT, 10ml (10mM HEPES pH 7.9 + 10mM KCl)], and left at ice temperature for 15 minutes. 25 µl of 10% solution of NP-40 was added and samples were mixed in a vortex vigorously for 10 seconds. Samples were centrifuged at 14,000xg for 1 minute at 4°C and the pellet treated once more in this fashion (resuspended etc.). The supernatant was removed and 100µl of ice-cold Buffer C [4µl 0.5M EDTA, 20µl 100mM EGTA, 20µl 100mM PMSF, 2µl 1 M DTT, 2ml (20mM HEPES pH 7.9 + 0.4M NaCl)] was added. Pellets were resuspended by tapping gently on the bottom of the Eppendorf tubes. Samples were rocked vigorously in a bucket of ice on an orbital shaker for 30 minutes. Samples were centrifuged at 14,000 xg for 5 minutes at 4°C. Protein determination of supernatant was conducted by the Bradford method.
(§5) Samples were prepared by adding one part of the Sample Buffer to one part of the sample and mixing well. Samples were heated at 95°C for 5 minutes to induce denaturation. 5µl of Rainbow Standard and 5µl ofBiotinylated Molecular Marker were added to parallel wells. 20µg protein per sample was loaded in each lane. Electrophoresis was performed with voltage set at 125V for about 1 ~ 1.5 hours. Gel transfer was executed at 25V for 2 hours. The membrane was stained in Ponceau S. for 5 minutes and destained with one wash of 5% acetic acid. The membrane was then washed in TBS solution until the staining disappeared. Membranes were incubated in 1ml blocking solution and 9ml TBS for 60 minutes. Membranes were incubated in 1ml of blocking solution and 19ml TBS along with 20µl primary antibody solution overnight (dilution of 1 : 1000). Membranes were washed in PBS-Tween 20, 3 times for 10 minutes each. They were finally incubated in 1ml blocking solution and 19ml TBS along with 20µl Antibiotin HRP - Linked Antibody and 2µl of secondary (rabbit anti-mouse antibody) (1 : 10,000 dilution) for 30 minutes. The membranes were washed in PBS - Tween 20, 4 times for 10 minutes each. The film was exposed for development and detection.

RARγ = assay: as above; assay type: in vivo; settings: for RARγ densitometric analysis: male SENCAR mouse liver
Method: as §1, §2, §3, §4, §5

RARα = assay: as above; assay type: in vivo; settings: for RARα densitometric analysis: male SENCAR mouse liver
Method: as §1, §2, §3, §4, §5

[3] = 30µg/g diet versus 3µg/g diet, 75 weeks
[4] = pharmacological dietary RA over physiological RA (3µg/g diet), day 1

CC1=C(/C=C/C(C)=C/C=C/C(C)=C/C(=O)O)C(C)(C)CCC1 [RA, all-trans-retinoic acid]
TGase II assay DPM/µg protein (TGase II [1]; pharmacological RA diet 30µg/g): 49,260 DPM/µg protein | TGase II assay DPM/µg protein (TGase II [1]; physiological RA diet 3µg/g): 9,820 DPM/µg protein | fold induction at 1 µM (TGase II [2]; Homo sapiens, MCF7, 72 h, read-out: stimulating TGase II activity): 7.4 | TGase II Activity (TGase II [2]; MCF-7 cells, 10^-6 M, 72 hours, DMSO control 0.183): 1.359 +/- 0.098 picomoles/µg protein/30 minutes | induction of lung tissue RARs (lung tissue RARs; long term feeding, 30µg/g diet): failed to induce RARs | effect on lung tissue RARs (lung tissue RARs; time course 1, 14 and 28 days, 30µg/g versus 3µg/g diet, not shown): no effect; also recorded: without any measurable effect on lung tissue RARs | upregulated liver RAR (β) (RARβ; [3]): 13.5 fold | RARβ densitometric analysis (RARβ; 3µg/g diet, 75 weeks): 18.9 +/- 7.4 IDV | RARβ densitometric analysis (RARβ; 30µg/g diet, 75 weeks): 254 +/- 31.9 IDV | stimulated liver RAR (β) (RARβ; [4]): 4 fold | upregulated liver RAR (γ) (RARγ; [3]): 12.5 fold | RARγ densitometric analysis (RARγ; 3pg/g diet as printed, 75 weeks): 23.1 +/- 6.7 IDV | RARγ densitometric analysis (RARγ; 30µg/g diet, 75 weeks): 288 +/- 17.4 IDV | stimulated liver RAR (γ) (RARγ; [4]): 2.1 fold | upregulated liver RAR (α) (RARα; [3]): 21.8 fold | RARα densitometric analysis (RARα; 3µg/g diet, 75 weeks): 12.1 +/- 7.2 IDV | RARα densitometric analysis (RARα; 30µg/g diet, 75 weeks): 264 +/- 21.3 IDV | stimulated liver RAR (α) (RARα; [4]): 2 fold
